# Results: patent US20170165286A1, “COMPOSITIONS AND METHODS FOR TREATING DIABETES AND LIVER DISEASES” (Cempra Pharmaceuticals, Inc., priority 2014, published 2017)
# “Also recorded” adds a separate entry of the source.
# Experiments:
# Assay type in all cases: in vivo
# [1] = system: BLM-induced pulmonary fibrosis model mice; assay: Bleomycin-induced lung injury: BALF analysis, body weight; settings: for BALF Eosinophil / BALF Lymphocytes / BALF Macrophages / BALF Neutrophil / BALF Total cells: oral q.d. day −2 to 6
# Method: Bleomycin-Induced Lung Injury. Lung inflammation is induced in female mice by a single intratracheal administration of bleomycin. Twenty mice are divided into two groups. […] It is to be understood herein that 100 mg/kg in mice is generally considered to be equivalent to a 450-500 mg, such as 480 mg, dose in humans. Animals are sacrificed on Day 7.
# Pathogen-free 7 weeks old female C57BL/6J mice are obtained from CLEA Japan (Tokyo, Japan) and allowed to acclimate at least 6 days. On day 0, twenty mice are induced to develop pulmonary fibrosis by a single intratracheal administration of bleomycin sulphate (BLM, Nippon Kayaku, Japan) in 0.9% saline in a volume of 50 μL per animal using a Microsprayer® (Penn-Century, USA). Individual body weight is measured daily during the experiment period. Survival, clinical signs and behavior of mice is monitored daily.
# Solithromycin Reduces Inflammation In Mice Caused By Bleomycin-Induced Lung Injury. Pulmonary fibrosis is a problem in the management of patients who have received chemotherapy for malignancies particularly with regimens that contain bleomycin (BLM), methotrexate, cyclophosphamide, and many new agents. These patients are susceptible to pulmonary infections as well as to inflammation from pulmonary injury. […] The effects of solithromycin on the ability to prevent lung inflammation and fibrosis is described in a bleomycin induced-lung inflammation and fibrosis model. Group 1 (BLM-Vehicle): Ten BLM-induced pulmonary fibrosis model mice are orally administered vehicle (Carboxymethyl cellulose) at a volume of 10 mL/kg once daily from day −2 (two days before BLM administration) to day 6. […]
# BALF samples were collected by flushing the lung via the trachea with sterile PBS three times (0.8 mL each). The first lavage was kept separate from the other two. BALF was centrifuged at 1,000×g for 3 minutes at 4° C. and the supernatant was collected and stored at −80° C. until use. The cell pellet from the first fraction and the remaining fractions of lavage fluid were pooled. Total cell number of BALF was counted with a hemocytometer and the cell differentials were determined by cytospin preparation stained with Diff-Quick (Sysmex, Japan). A differential cell count was performed on up to about 200 cells.
# MMP-9 in the BALF was quantified by the Mouse Total MMP-9 Quantikine ELISA Kit (R&D Systems, USA).
# Analyses of BALF (bronchoalveolar lavage fluid). The cells in BALF are counted with a hemocytometer, and cell differentials are determined in cytospin preparations stained with Diff-Quik (Sysmex, Japan) MMP-9 in the supernatants from BALF are quantified by an enzyme-linked immunosorbent assay (ELISA; Cat# MMPT90, R&D Systems, USA). Histopathological assays for lung sections are performed according to standard methods. Masson's Trichrome staining and estimation of Ashcroft Score includes HE staining. Gene expression assays using total RNA from the lung are obtained using real-time RT-PCR analyses performed for TNF-α, MCP-1 and MMP-9.
# STAM mice = assay: STAM model: serum biochemistry (HPLC)
# Method: NASH-HCC (STAM™) Model. C57BL/6 (15-day-pregnant female) mice are obtained from Charles River Laboratories Japan (Kanagawa, Japan). Male pups are selected for the study. NASH is induced in male mice by a single subcutaneous injection of 200 μg streptozotocin (STZ, Sigma-Aldrich, USA) solution 2 days after birth, followed by feeding a HFD (57 kcal % fat, cat#: HFD32, CLEA Japan, Japan) beginning at 4 weeks of age. At 5 weeks of age, mice are divided into a control group and one or more treated group (generally 8 mice per group). Animals are sacrificed at 9 weeks of age, and biochemical, histological, and gene expression analyses are performed.
# During weeks 5-9 (starting at day 35±2), test compound is administered (generally orally) at various doses diluted to 10 mL/kg and according to various dosing protocols to treatment groups (8 mice each) while a second group (8 mice) is administered vehicle only. Animals are sacrificed at 9 weeks.
# Measurement of serum biochemistry. For serum biochemistry, blood is collected in polypropylene tubes without anticoagulant and incubated at room temperature for 30 minutes, at 4° C. for 1 hour, and then centrifuged at 1,000×g for 15 minutes at 4° C. The supernatant is collected and stored at −80° C. until use. Serum triglyceride, HDL-cholesterol, LDL-cholesterol, VLDL-cholesterol, and chylomicron ([…]) are quantified by HPLC at Skylight Biotech Inc. (Japan).
# Illustrative dose response test groups. Group 1-Normal. Eight normal mice are fed with a normal diet ad libitum without any treatment until 9 weeks of age. Group 2-Vehicle. Eight NASH mice are orally administered vehicle (0.5% w/v methylcellulose+0.2% Tween®80) in a volume of 10 mL/kg twice daily from 5 to 9 week of age. Group 3-solithromycin 5 mg/kg. Eight NASH mice are orally administered vehicle supplemented with solithromycin at a dose of 5 mg/kg in the morning and the vehicle in the evening (5 mg/kg/day) from 5 to 9 weeks of age. Group 4-solithromycin 10 mg/kg. Eight NASH mice are orally administered vehicle supplemented with solithromycin at a dose of 10 mg/kg twice daily (20 mg/kg/day) from 5 to 9 weeks of age. Group 5-solithromycin 25 mg/kg. Eight NASH mice are orally administered vehicle supplemented with solithromycin at a dose of 25 mg/kg twice daily (50 mg/kg/day) from 5 to 9 weeks of age. Group 6-solithromycin 50 mg/kg. Eight NASH mice are orally administered vehicle supplemented with solithromycin at a dose of 50 mg/kg once daily (50 mg/kg/day) from 5 to 9 weeks of age.
# [2] = QT / tQT effects and plasma levels
# Excerpt: The compounds described herein, including solithromycin, are effective in treating host animals with high cardiovascular disease risk.
# [3] = bleomycin mice, heading says 50 mg/kg q.d.
# [4] = bleomycin mice, heading says 50 mg/kg q.d., listed as SOLI
# [5] = 5 mg/kg q.d., listed as SOLI, 5 mg/kg
# [6] = 10 mg/kg b.i.d., listed as SOLI, 10 mg/kg
# [7] = 25 mg/kg b.i.d., listed as SOLI, 25 mg/kg
smiles,measurement,setting,value
CC[C@H]1OC(=O)[C@@](C)(F)C(=O)[C@H](C)[C@@H](O[C@@H]2O[C@H](C)C[C@H](N(C)C)[C@H]2O)[C@](C)(OC)C[C@@H](C)C(=O)[C@H](C)[C@H]2N(CCCCn3cc(-c4cccc(N)c4)nn3)C(=O)O[C@]12C [solithromycin],MMP-9 expression,"[1]; bleomycin mice BALF (ELISA), heading says 50 mg/kg q.d.",decreasing trend
same,Body weight changes compared to vehicle group,"[1]; bleomycin mice, any day and day of sacrifice",no significant differences
same,BALF Eosinophil,[1]; [3],significantly decreased
same,BALF Lymphocytes,[1]; [3],significantly decreased
same,BALF Macrophages,[1]; [3],no significant difference
same,BALF Neutrophil,[1]; [3],significantly decreased
same,BALF Total cells,[1]; [3],significantly decreased
same,BALF Eosinophil,[1]; [4],0.3 ± 0.2 × 10^4
same,BALF Lymphocytes,[1]; [4],3.9 ± 1.9 × 10^4
same,BALF Macrophages,[1]; [4],16.9 ± 9.6 × 10^4
same,BALF Neutrophil,[1]; [4],0.7 ± 0.4 × 10^4
same,BALF Total cells,[1]; [4],2.2 ± 1.2 × 10^5
same,Serum HDL-cholesterol,"STAM mice; 5 mg/kg q.d., 5 mg/kg",no statistically significant differences
same,Serum VLDL-cholesterol,"STAM mice; 5 mg/kg q.d., 5 mg/kg",no statistically significant differences
same,Serum chylomicron,"STAM mice; 5 mg/kg q.d., 5 mg/kg",no statistically significant differences
same,Serum triglyceride,"STAM mice; 5 mg/kg q.d., 5 mg/kg",no statistically significant differences
same,Serum HDL-cholesterol,STAM mice; [5],88.4 ± 14.2 mg/dL
same,Serum VLDL-cholesterol,STAM mice; [5],9.8 ± 5.3 mg/dL
same,Serum chylomicron,STAM mice; [5],1.5 ± 1.2 mg/dL
same,Serum triglyceride,STAM mice; [5],133.8 ± 110.1 mg/dL
same,Serum HDL-cholesterol,"STAM mice; 10 mg/kg b.i.d., 10 mg/kg",no statistically significant differences
same,Serum VLDL-cholesterol,"STAM mice; 10 mg/kg b.i.d., 10 mg/kg",no statistically significant differences
same,Serum chylomicron,"STAM mice; 10 mg/kg b.i.d., 10 mg/kg",no statistically significant differences
same,Serum triglyceride,"STAM mice; 10 mg/kg b.i.d., 10 mg/kg",no statistically significant differences
same,Serum HDL-cholesterol,STAM mice; [6],89.3 ± 21.5 mg/dL
same,Serum VLDL-cholesterol,STAM mice; [6],9.7 ± 3.8 mg/dL
same,Serum chylomicron,STAM mice; [6],1.4 ± 0.6 mg/dL
same,Serum triglyceride,STAM mice; [6],116.5 ± 58.8 mg/dL
same,Serum HDL-cholesterol,"STAM mice; 25 mg/kg b.i.d., 25 mg/kg",no statistically significant differences
same,Serum VLDL-cholesterol,"STAM mice; 25 mg/kg b.i.d., 25 mg/kg",significantly decreased; also recorded: Statistically significant reduced
same,Serum chylomicron,"STAM mice; 25 mg/kg b.i.d., 25 mg/kg",significantly decreased
same,Serum triglyceride,"STAM mice; 25 mg/kg b.i.d., 25 mg/kg",significantly decreased; also recorded: Statistically significant reduced
same,Serum HDL-cholesterol,STAM mice; [7],97.9 ± 26.3 mg/dL
same,Serum VLDL-cholesterol,STAM mice; [7],5.4 ± 3.2 mg/dL
same,Serum chylomicron,STAM mice; [7],0.7 ± 0.4 mg/dL
same,Serum triglyceride,STAM mice; [7],46.8 ± 47.8 mg/dL
same,Plasma levels achieved,[2]; PK analysis in QT evaluation,2000 to 3000 ng/mL
same,QT or tQT prolongation,[2]; dosed orally or intravenously,does not show any QT or tQT prolongation
